Source: US6436984B1, “Melatonin derivatives and medicine containing same” (Centre National de la Recherche Scientifique (CNRS), priority 1998, dated 2002)

Tested on: P 815 line
Assay: cell proliferation of the P 815 line (tritiated thymidine incorporation)
Type: cell-based
Conditions: P 815 cells, 7 hours incubation in RPMI medium with phenol red, tritiated thymidine added after 3 hours, radioactivity associated with the DNA
Experimental: The biological activity of the derivative of formula I was compared with dipropylenetriamine NONOate (A), melatonin (B) and a dipropylenetriamine NONOate and melatonin (1/2) mixture (C) on the cell preparation of the cell proliferation of the P 815 line.
The cells are incubated with the products in RPMI medium with phenol red for 7 hours. Tritiated thymidine is added after incubating for 3 hours.
The results are shown on the curve in the single appended FIGURE, where the concentration of product (μM) is carried on the abscissa and the radioactivity associated with the DNA (cpm) is carried on the ordinate.

| Structure (SMILES) | IC50 (Mus musculus, P815) | IC50 |
| --- | --- | --- |
| COc1ccc2c(c1)c(CCNC(C)=O)cn2N=O [compound of formula I, N1-nitrosomelatonin] | 280 µM | – |
| NCCCN(CCCN)/[N+]([O-])=N/O [dipropylenetriamine NONOate (A), dipropylenetriamine NONOate] | – | 150 µM |
